Experimental data: PMC6620859, “Synthesis and Preclinical Evaluation of the Fibrin-Binding Cyclic Peptide ^18F-iCREKA: Comparison with Its Contrasted Linear Peptide” (Contrast Media & Molecular Imaging, 2019)
Values joined by “and” are separate entries in the source; they are usually repeats but may differ in a detail not shown here. Equal values may be shown once.

Tests used:
fibrin clots = biological target: T1, fibrin clots (Homo sapiens, UniProt P02671+P02675+P02679); assay: Fluorine-18-labeled peptide binding affinity to fibrin clots; details: clots from 75 μL fibrinogen 2 mg/mL + 30 μL thrombin 2.5 U/mL; 100 μL tracer in PBS, 37°C, one hour, PBS washed three times, radioactive counter, four tubes, mean ± SD
T1 sequence (P02671 36-629 limits assumed): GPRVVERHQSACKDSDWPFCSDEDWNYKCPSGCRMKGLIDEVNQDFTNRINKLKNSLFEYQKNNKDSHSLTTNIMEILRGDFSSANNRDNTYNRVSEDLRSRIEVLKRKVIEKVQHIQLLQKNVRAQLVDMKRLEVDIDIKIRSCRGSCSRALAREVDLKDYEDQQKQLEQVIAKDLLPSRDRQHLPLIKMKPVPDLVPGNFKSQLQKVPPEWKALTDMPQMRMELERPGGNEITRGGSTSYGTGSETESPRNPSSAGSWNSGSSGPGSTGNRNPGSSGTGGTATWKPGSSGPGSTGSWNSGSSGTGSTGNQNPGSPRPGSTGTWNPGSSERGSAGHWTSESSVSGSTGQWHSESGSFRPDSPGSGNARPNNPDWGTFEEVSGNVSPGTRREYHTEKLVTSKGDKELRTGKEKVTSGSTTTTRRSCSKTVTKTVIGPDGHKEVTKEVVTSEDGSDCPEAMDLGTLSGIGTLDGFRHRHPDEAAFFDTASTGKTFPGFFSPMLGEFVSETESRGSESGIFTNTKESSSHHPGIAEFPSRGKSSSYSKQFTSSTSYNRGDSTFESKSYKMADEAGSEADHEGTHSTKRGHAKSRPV
T1 sequence (P02675 45-491 limits assumed): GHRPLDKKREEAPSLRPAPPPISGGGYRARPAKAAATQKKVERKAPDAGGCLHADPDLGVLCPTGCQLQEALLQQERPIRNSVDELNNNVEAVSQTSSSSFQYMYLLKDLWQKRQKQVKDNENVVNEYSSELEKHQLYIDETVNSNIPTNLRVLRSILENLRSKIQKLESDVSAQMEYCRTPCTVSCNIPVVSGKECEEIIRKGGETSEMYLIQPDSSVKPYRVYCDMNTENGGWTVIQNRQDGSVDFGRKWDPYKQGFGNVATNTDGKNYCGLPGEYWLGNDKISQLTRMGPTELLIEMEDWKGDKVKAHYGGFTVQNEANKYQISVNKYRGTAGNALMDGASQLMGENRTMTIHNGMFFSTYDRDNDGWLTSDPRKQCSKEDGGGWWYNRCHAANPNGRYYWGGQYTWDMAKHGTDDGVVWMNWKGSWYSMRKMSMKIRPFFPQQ
T1 sequence (P02679 27-437 isoform P02679-2 limits assumed): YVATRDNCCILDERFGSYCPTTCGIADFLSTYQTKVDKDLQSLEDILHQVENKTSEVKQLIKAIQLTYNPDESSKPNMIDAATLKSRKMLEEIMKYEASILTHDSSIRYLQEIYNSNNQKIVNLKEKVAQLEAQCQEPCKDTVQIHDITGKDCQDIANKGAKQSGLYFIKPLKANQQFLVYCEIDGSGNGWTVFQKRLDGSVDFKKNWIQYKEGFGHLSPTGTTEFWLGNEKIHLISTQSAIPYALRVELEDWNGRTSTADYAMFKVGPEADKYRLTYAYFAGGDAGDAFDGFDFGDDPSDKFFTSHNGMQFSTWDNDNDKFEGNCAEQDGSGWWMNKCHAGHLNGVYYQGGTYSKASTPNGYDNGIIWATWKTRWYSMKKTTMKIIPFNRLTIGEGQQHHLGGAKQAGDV
Method: As previously reported, to synthesize fibrin clots, 75 μL of fibrinogen solution (2 mg/mL) in 0.9% NaCl was added to four 1.5 mL EP tubes. 30 μL of a 2.5 U/mL thrombin solution in 0.9% NaCl was subsequently added to these tubes. The tubes were placed in the thermostatic oscillator at 37°C for four hours, and the gels representative of fibrin clots were formed in the tubes. 370 KBq (10 μCi) fluorine-18-labeled peptide was diluted in 1 ml PBS. 100 μL of the solution was added into each tube, respectively, and added into four empty tubes for reference. All tubes were incubated at 37°C for one hour. After that, the supernatant liquid was carefully pipetted. PBS was added and pipetted three times to remove any CREKA or peptides not bond to the fibrin clots. Finally, all tubes were measured by a CAPRAC®-R radioactive counter (Imaxeon) to obtain the bond-to-gross ratio.

U87MG xenograft = details: mouse, in vivo
Method: Animal procedures were performed according to the guideline of the Animal Ethics Committee of the Southern Medical University. Approximately 10 × 10^6 U87MG cells and Caov3 cells were suspended in PBS and subcutaneously implanted in the right armpit of female BALB/c nude mice. Tumors were allowed to grow to a size of 0.5–1.5 cm in diameter.
Small-animal PET/CTs were performed at the PET center of Southern Medical University Nanfang Hospital using a PET/CT scanner (Simens Inveon Micro-PET/CT). Tumor-bearing mice (n = 3/group) were intravenously injected with 5.55 MBq of ^18F-NOTA-LP or ^18F-NOTA-iCREKA under isoflurane anesthesia. A ten-minute static PET scan for each animal was acquired at 30, 60, and 120 min after the injection. 120 min dynamic scans were also obtained for ^18F-NOTA-LP and ^18F-NOTA-iCREKA (n = 2/group). The 3-dimensional ordered subset expectation maximization (3D-OSEM) algorithm was used for the PET reconstruction, and CT was applied for attenuation correction. Inveon Research Workplace (IRW) 3.0 software (Siemens, Germany) was used to measure the regions of interest (ROIs). The radioactivity concentrations were computed automatically, and the results were reflected by the unit of percent injected dose per gram (%ID/g). The maximum %ID/g of the ROIs was used for statistical analyses. Tumor-to-muscle (T/M) uptake ratios were calculated by dividing the radioactivity uptake in the tumor by the contralateral shoulder muscle.

Caov3 cells = assay: Cellular uptake test in Caov3 cells; assay type: cell-based, human; details: radio medium mixed with activated MMP-2; compared with no activation
Method: (§1) U87MG cells and Caov3 cells were counted and uniformly inoculated into 24-well plates. The 24-well plates were marked, and cells were incubated for 24 hours in complete DMEM with 10% fetal bovine serum. Radio medium was prepared by adding 888 KBq (24 μCi) fluorine-18-labeled peptide into 15 mL DMEM without any serum. After incubation, the complete DMEM were poured and the radio medium were added in with 500 μL/well. The remainder medium were collected into 4 γ countertubes with 500 μL/tube to be representative of radioactivity gross. When the time arrived at 2, 5, 15, 30, 60, and 120 min, the radio medium were carefully pipetted out and the wells were carefully rinsed by 1 mL of PBS for 3 times. 4 wells were divided into a group corresponding to one time point. After the rinsing, SDS-NaOH solutions were added into the wells to dissociate the cells. The solutions were collected into γ countertubes to measure the radioactivity. The binding affinity was reflected by the radioactivity percentage, which was recorded as ID%, of the wells and the gross. The final results were recorded as the time-radioactivity curve including the six time points.
(§2) Fluorine-18 labeled peptides binding affinities after activation were also measured by this protocol while the radio-medium were mixed with activated MMP-2 (Abcam).

[1] = assay type: physicochemical
Method: The water partition coefficient was reflected by the logP value of the fluorine-18-labeled peptides. 500 μL of octanol and 500 μL of pure water were added into an EP tube. 185 KBq (5 μCi) of fluorine-18-labeled peptides were added into the solution and well mixed. After centrifugating for 5 min at a speed of 1000 r/min, 300 μL of supernatant liquid and 300 μL of lower liquid were carefully pipetted into two γ countertubes, respectively. The logarithm of the radioactivity ratio of octanol to water was the logP value. The test was repeated four times for each fluorine-18-labeled peptide.

U87MG cells = assay: Cellular uptake test in U87MG cells; assay type: cell-based, human; details: for cellular uptake to U87MG cells after activation by MMP-2: radio medium mixed with activated MMP-2, compared with no activation; for cellular uptake percentage (ID%), peak / maximum, U87MG cells: without MMP-2 activation, serum-free DMEM, 500 μL/well, 2-120 min, PBS rinsed 3 times, γ counting, 4 wells per time point
Method: as §1, §2

[2] = mouse, in vivo
Method: A nude with U87MG xenograft was injected with a dose of approximately 11.1 MBq (0.3 mCi) of ^18F-labeled peptides via the tail vein. The mouse was euthanized at 30 min after injection, the tumor was carefully excised, and the blood was collected. The tumor was cut into pieces and made into homogenates by mixing 200 μL normal saline. The mixture was centrifuged for 10 min at a speed of 12000 r/min. The supernatant liquid was carefully pipetted and transferred into an Amicon® Ultracentrifugal filter device for further centrifugation. The filtrate was injected into an HPLC column to analyze the in vivo stability of fluorine-18-labeled peptide.

Row | Substance | fibrin-binding percentage (bond-to-gross ratio) (fibrin clots) | kidney uptake (U87MG xenograft) | liver uptake (U87MG xenograft) | tumor-to-muscle (T/M) ratio on micro-PET (U87MG xenograft) | cellular uptake to Caov3 cells after activation by MMP-2 (Caov3 cells) | logP value [1] | cellular uptake to U87MG cells after activation by MMP-2 (U87MG cells) | cellular uptake percentage (ID%), peak / maximum, U87MG cells (U87MG cells) | area under the time-radioactivity curve representative of defluorination, blood [2] [%] | area under the time-radioactivity curve representative of defluorination, tumor [2] [%] | maximum T/M ratio on dynamic micro-PET (U87MG xenograft)
1 | CREKAPLGLAGRKKRRQRRRCK (NOTA) (Cys&Cys bridge) (disulfide) [^18F-NOTA-iCREKA] | 67.92 ± 6.71% | about 27 %ID/g | about 4 %ID/g | 6.48 ± 0.50 | obviously increased | −2.51 ± 0.01 | increased | 23.90% and 16.05% | 27.78 | 23.28 | 
2 | CREKAPLGLAGRKKRRQRRRCK (NOTA) [^18F-NOTA-LP, Al^18F-labeled NOTA conjunct of the contrasted linear peptide LP] | 67.09 ± 6.20% |  |  | 2.08 ± 0.50 | slightly higher | −2.57 ± 0.02 | increased | 16.05% and 23.90% |  |  | 2.69 ± 0.35
3 | NOTA-CREKA [^18F-NOTA-CREKA, Al^18F-labeled NOTA conjunct of the pentapeptide CREKA] | 69.31% ± 6.82 |  |  |  | nearly no radioactivity | −2.47 ± 0.05 | still no radioactivity |  |  |  | 
